Source: patent US7091369B2, “Synthesis of polyconjugated fatty acids” (Board of Trustees Operating Michigan State University, priority 2003, dated 2006)

Assays:
[1] = spontaneous isomerisation at room temperature monitored by HPLC; format: physicochemical
Excerpt: The main difference between the spectra is the hypsochromic shift of the Compound 2 peak maxima of about 3 nm.

Row | SMILES | oxidative metabolism (HEK293 cells) | elongation to a 22 carbon fatty acid (HEK293 cells; compared with AA or EPA) | cellular uptake and assimilation into complex lipids (HEK293 cells; fractionation of organic extracts on aminopropyl columns) | stability (geometrical isomerisation) [1]
1 | CC/C=C\C/C=C\C/C=C/C=C/C=C/C=C/CCCC(=O)O [5E,7E,9E,11E,14Z,17Z-eicosahexaenoic acid] | appears to be oxidized through a monooxygenation system in HEK293 cells, and the products released to the medium | appeared not to be elongated efficiently to a 22 carbon fatty acid | taken up by the cells and assimilated into complex lipids | 
2 | CC/C=C\C/C=C\C\C=C/C=C/C=C/C=C/CCCC(=O)O [Compound 1, 5E,7E,9E,11Z,14Z,17Z-eicosahexaenoic acid] |  |  |  | spontaneous room temperature conversion of Compound 1 to Compound 2
